The source made the active and inactive calls. No cut-off for these calls is given here.
How the values were obtained:
Bone marrow cell [1] = assay: Inhibition of osteoclastogenesis in CD1 mouse bone marrow cells at 0.1 to 10 ug/ml added on day 2 and day 4 measured on day 7 by TRAP assay; format: functional, cell-based
Bone marrow cell [2] = assay: Inhibition of osteoclastogenesis in CD1 mouse bone marrow cells at 37 uM added on day 2 and day 4 measured on day 7 by TRAP assay relative to control; format: functional
Bone marrow cell [3] = assay: Inhibition of osteoclastogenesis in CD1 mouse bone marrow cells at 0.01 ug/ml added on day 2 and day 4 measured on day 7 by TRAP assay relative to control; format: functional
Bone marrow cell [4] = assay: Inhibition of osteoclastogenesis in CD1 mouse bone marrow cells at 5 ug/ml added on day 2 and day 4 measured on day 7 by TRAP assay relative to GW9508; format: functional, cell-based
Bone marrow cell [5] = assay: Inhibition of osteoclastogenesis in CD1 mouse bone marrow cells at 72 uM added on day 2 and day 4 measured on day 7 by TRAP assay relative to control; format: functional

Structure (SMILES) | inhibition (Bone marrow cell [1]) | inhibition at 37 µM (Bone marrow cell [2]) | inhibition at 0.01 µg/mL (Bone marrow cell [3]) | inhibition (Bone marrow cell [4]) | inhibition at 72 µM (Bone marrow cell [5])
CCCCCCCCCCOCCCCC(=O)O | Dose-dependent effect | 65.4% | – | – | –
CCCCCCCCCCCn1cc(CC(=O)O)nn1 | – | 38.8% | – | – | –
CCCCCOCCCCCCCCCC(=O)O | inactive | 100% | – | – | –
COCCOCCOCCCCCCCC(=O)O | – | 100% | – | – | –
CCCCCCOCCCCCCCCC(=O)O | inactive | 100% | – | – | –
CCCCCCCCCOCCCCCC(=O)O | inactive | 100% | – | – | –
CCCCCCCCCCn1cc(CCC(=O)O)nn1 | Active | 26.7% | – | – | –
CCCCCCCCCCC#CCCCCCC(=O)O [OSTEOPROTEGERIN] | – | – | 32.6% | – | –
CCCCCCCCCCCCCCCC(=O)O [PALMITIC ACID] | Active | 73.8% | – | Active | –
CCCCCCCCCCCCCOCC(=O)O | – | 100% | – | – | –
CCCOCCCCCCCCCCCC(=O)O | Dose-dependent effect | 73.2% | – | – | –
CCn1cc(CCCCCCCCCCC(=O)O)nn1 | Dose-dependent effect | 16.9% | – | Active | –
O=C(O)CCc1ccc(NCc2cccc(Oc3ccccc3)c2)cc1 [GW9508] | Dose-dependent effect | – | – | – | 28.2%
CCCCCCCCCn1cc(CCCC(=O)O)nn1 | Active | 22.2% | – | – | –
CCCCCn1cc(CCCCCCCC(=O)O)nn1 | – | 33.8% | – | – | –
CCCCCCCn1cc(CCCCCC(=O)O)nn1 | Dose-dependent effect | 21.5% | – | Active | –
CCCCCCCCCCCCOCCC(=O)O | Dose-dependent effect | 80.8% | – | – | –

From ChEMBL document CHEMBL2396534, “Long-chain triazolyl acids as inhibitors of osteoclastogenesis” (2013)
